Measurements published in patent US20240342168A1, “SMALL MOLECULE INHIBITORS FOR ANTI-CANCER COMBINATION THERAPY” (UNIVERSITY OF CAPE TOWN, priority 2021, published 2024).

What was measured:
Assay type in all cases: cell-based
[1] = system: Mel 80; assay: Combination index (CI) determination, Chou-Talalay method; conditions: Mel 80 cervical cancer cell line
Experimental: (§1) To elucidate the nature of the combined use of INI-43 and cisplatin, the Chou-Talalay method was adopted (Chou T C, Talalay P. Quantitative analysis of dose-effect relationships: the combined effects of multiple drugs or enzyme inhibitors. Adv Enzym Regul. 1984; 22:27-55). Cell viability was determined after 48-h treatment at fixed INI-43 to cisplatin ratios of 1:3, 1:4 and 1:5 (Table 1 below). Cell viability was converted to fraction affected (Fa) and CI calculated using CompuSyn software (ComboSyn, Inc.).

[2] = system: WHC05; assay: as above; conditions: WHC05 oesophageal cancer cell line
Experimental: as §1

[3] = system: HeLa; assay: as above; conditions: HeLa cervical cancer cell line
Experimental: as §1

[4] = system: Kyse 30; assay: as above; conditions: Kyse 30 oesophageal cancer cell line
Experimental: as §1

[5] = system: SiHa cells; assay: as above; conditions: INI-43 to cisplatin ratios 1:3, 1:4 and 1:5, at Fa>0.2, 2 h pre-incubation, 48 h
Experimental: as §1

[6] = system: cyclin D1, c-Myc and XIAP; assay: Western blot of NFκB targets; conditions: INI-43-cisplatin combination vs single cisplatin, concentration dependent
Experimental: (§2) For protein extraction, cells were washed with PBS and lysed using RIPA buffer (50 mM Tris-CI, pH 7.4, 150 mM NaCl, 1% (w/v) sodium deoxycholate, 0.1% (v/v) SDS, 1% (v/v) Triton X-100, 2 mM EGTA, 2 mM EDTA, 50 mM NaF, 5 mM Na2P2O7, 1× complete protease inhibitor cocktail (Roche) and 0.1 M Sodium Orthovanadate). For PARP cleavage analysis, dead cells were collected by centrifugation and combined with live cell lysates. Lysates were sonicated, centrifuged, and the supernatant quantified using the BCA Protein Assay Kit (Pierce, Thermo Scientific) according to the manufacturer's instructions. Proteins were subjected to Western blot analysis using the following antibodies: rabbit anti-Kpnβ1 (H-300, sc-11,367, Santa Cruz), rabbit anti-β-tubulin (H-235, sc-9104, Santa Cruz), rabbit anti-PARP1/2 antibody (H-250, sc-7150, Santa Cruz), mouse anti-GAPDH (0411, sc-47,724, Santa Cruz), rabbit anti-p21 (H-164, sc-756, Santa Cruz), rabbit anti-Mcl-1 (H-260, sc-20,679, Santa Cruz), mouse anti-cyclin D1 (HD11, sc-246, Santa Cruz), rabbit anti-c-Myc (N-262, sc-764, Santa Cruz), mouse anti-p53 (DO-7, M7001, DakoCytomation), mouse anti-XIAP (610,763, BD Biosciences), and rabbit anti-phospho-Histone H2AX (γH2AX, Ser139, 20E3, #9718, Cell Signal).

[7] = system: SiHa cells; assay: Caspase-3/7 assay (Caspase-Glo 3/7); conditions: INI-43 pre-treatment plus cisplatin, 48 h
Experimental: (§3) Cells were subjected to single or CT for 48 h, and caspase-3/7 activity monitored using the Promega Caspase-Glo^R 3/7 assay, according to the manufacturer's instructions. Luminescence was measured using the Veritas™ microplate luminometer (Promega) and results standardized to viable cells in each treatment as determined by MTT assays performed in parallel.

[8] = system: HeLa cells; assay: Caspase-3/7 assay (Caspase-Glo 3/7); conditions: INI-43 pre-treatment plus cisplatin, 48 h
Experimental: as §3

[9] = system: SiHa cells; assay: PARP cleavage by Western blot
Experimental: as §2

[10] = system: HeLa cells; assay: PARP cleavage by Western blot
Experimental: as §2

[11] = system: p65 reporter activity in SiHa cells; assay: p65-luciferase reporter assay; conditions: pre-treated with INI-43 then cisplatin
Experimental: SiHa cells were transfected with 100 ng p65-luciferase reporter construct (containing five copies of the p65-binding site, Promega) or 200 ng p53-luciferase reporter construct (containing thirteen wildtype p53 binding sites, Addgene plasmid #16442, Addgene Plasmid Repository (el-Deiry W S, Tokino T, Velculescu V E, Levy D B, Parsons R, Trent J M, et al. WAF1, a potential mediator of p53 tumor suppression. Cell. 1993; 75(4):817-25) and 10 ng pRL-TK (encoding Renilla luciferase, Promega), using Genecellin transfection reagent (Celtic Molecular Diagnostics). The following day cells were treated with 5 μM INI-43 for 2 h, followed by 30 μM cisplatin for 24 h, and luciferase activity assayed using the Dual-Luciferase Report assay system (Promega), according to the manufacturer's instructions. Luciferase readings were measured using the Veritas™ microplate luminometer (Promega) and normalised to Renilla luciferase from the same extract.

[12] = system: C33A; assay: MTT cell viability / cisplatin IC50 determination
Experimental: (§4) HeLa, SiHa, CaSki and C33A cell lines were purchased from the American Type Culture Collection (ATCC) and maintained in Dulbecco's Modified Eagle's Medium (DMEM, Gibco, Life Technologies) containing 10% Fetal Bovine Serum (Gibco, Life Technologies), supplemented with 100 U/mL penicillin and 100 μg/mL streptomycin. Cells were cultured at 37° C. in a humidified chamber with 5% CO2. All cell lines were authenticated by DNA profiling using the Cell ID System (Promega, Madison, WI, USA).
(§5) Cells were plated in 96-well plates and subjected to single or CT (2 h INI-43 pre-treatment followed by cisplatin treatment, without removing IN1-43 from the media) for 48 h. Following treatment, MTT (Sigma) was added and 4 h later crystals solubilized using 10% SLS in 0.01 M HCl. Absorbencies were measured at 595 nm and IC50 values determined via plotting [Fa/(1-Fa)] in log scale against log cisplatin concentration, where:
(§6) The half inhibitory concentration was calculated using the formula IC50=10^x-intercept

[13] = system: SiHa; assay: MTT cell viability / cisplatin IC50 determination; conditions: for cell viability, combination treatment vs cisplatin-only: 5 μM INI-43 pre-treatment, fixed cisplatin concentrations, MTT 48 h
Experimental: as §4, §5, §6

[14] = system: HeLa; assay: MTT cell viability / cisplatin IC50 determination; conditions: for cell viability, combination treatment vs cisplatin-only: 5 μM INI-43 pre-treatment, fixed cisplatin concentrations, MTT 48 h
Experimental: as §4, §5, §6

[15] = system: CaSki; assay: MTT cell viability / cisplatin IC50 determination; conditions: for cell viability, combination treatment vs cisplatin-only: 5 μM INI-43 pre-treatment, fixed cisplatin concentrations, MTT 48 h
Experimental: as §4, §5, §6

[16] = INI-43 pre-treatment plus cisplatin
[17] = 2 h INI-43 pre-treatment then cisplatin 48 h, vs no pre-treatment

CN(C)CCCn1c(N)c(-c2nc3ccccc3[nH]2)c2nc3ccccc3nc21 [INI-43]
nature of INI-43 and cisplatin combination (CI) [1]: synergism | nature of INI-43 and cisplatin combination (CI) [2]: synergism | nature of INI-43 and cisplatin combination (CI) [3]: synergism | nature of INI-43 and cisplatin combination (CI) [4]: synergism | combination index (CI) values [5]: below 1 | levels of cyclin D1, c-Myc and XIAP [6]: all reduced | increase in caspase-3/7 activation, combination vs cisplatin only [7]: 2.8 fold | increase in caspase-3/7 activation, combination vs cisplatin only [8]: 3.6 fold | apoptosis (PARP cleavage), INI-43 on its own ([9]; 5 μM INI-43): negligible apoptosis | PARP cleavage, combination treated vs cisplatin only [9, 16]: enhanced PARP cleavage | apoptosis (PARP cleavage), INI-43 on its own ([10]; 5 μM INI-43): negligible apoptosis | PARP cleavage, combination treated vs cisplatin only [10, 16]: enhanced PARP cleavage | cisplatin-induced increase in p65 activity [11]: reduced | cell viability, INI-43 on its own ([12]; 5 μM INI-43): did not affect cell viability | cell viability, combination treatment vs cisplatin-only ([12]; 5 μM INI-43 pre-treatment, fixed cisplatin concentrations, MTT 48 h): no change in cell viability | change in cisplatin IC50 [12, 17]: no change | cell viability, INI-43 on its own ([13]; 5 μM INI-43): did not affect cell viability | cell viability, combination treatment vs cisplatin-only [13]: significantly decreased cell viability | cell viability, combination treatment vs cisplatin-only ([13]; listed as Compound A): increased cisplatin sensitivity | decrease in cisplatin IC50 [13, 17]: 46% | cell viability, INI-43 on its own ([14]; 5 μM INI-43): did not affect cell viability | cell viability, combination treatment vs cisplatin-only [14]: significantly decreased cell viability | cell viability, combination treatment vs cisplatin-only ([14]; listed as Compound A): increased cisplatin sensitivity | decrease in cisplatin IC50 [14, 17]: 44% | cell viability, INI-43 on its own ([15]; 5 μM INI-43): did not affect cell viability | cell viability, combination treatment vs cisplatin-only [15]: significantly decreased cell viability | cell viability, combination treatment vs cisplatin-only ([15]; listed as Compound A): increased cisplatin sensitivity | change in cisplatin IC50 [15, 17]: small reduction
